Assay results from patent US12023330B2, “Use of manzamines as antiproliferative agent” (priority 2020, dated 2024).

Tested on: p53, p21, cyclin D1, total Rb, phospho-Rb
Test: Protein expression analysis of cell cycle regulatory proteins
Format: cell-based, human
Settings: 2 and 4 μM, 48 h
Excerpt: Molecular Targets of Manzamine A (1). HeLa, SiHa and CaSki cell lines represent the most common form of cervical cancer infected by the HPV type 16 (SiHa and CaSki) and 18 (HeLa). Cervical cancer is primarily aggravated by the sustained expression of HPV-derived E6 and E7 oncogenes utilizing distinct mechanisms that affect cell-cycle checkpoints. For instance, E6 promotes p53 degradation, while E7 is associated with phosphorylation of retinoblastoma (Rb) proteins. See (22) Huh, K.; Zhou, X.; Hayakawa, H.; Cho, J. Y.; Libermann, T. A.; Jin, J.; Harper, J. W.; Munger, K. J. Virol. 2007, 81, 9737-9747 and Talis, A. L.; Huibregtse, J. M.; Howley, P. M. J. Biol. Chem. 1998, 273, 6439-6445. Both p53 and Rb are tumor suppressor genes and play a critical role in maintaining cell cycle regulation. Additionally, interaction of cyclin D1 with Rb protein and their expression levels correlate positively in association with tumorigenesis. Therefore, we sought to examine the molecular targets of manzamine A leading to anti-cancer activity in cervical cancer. […] Following the overnight attachment of 1×10^6 cells/well, the cells were treated with manzamine A (1) at 2 and 4 μM concentrations and incubated for 48 h. Cell lysates were prepared for protein analysis. […] However, detailed mechanistic studies of manzamine A determining anti-cancer effect are required to further substantiate these observations.
Protein Expression Analysis. C33A, HeLa, SiHa and CaSki cells were seeded at a density of 1×10^6 cells/100 mm petri dish. The next day, the cells were treated with 2 μM or 4 μM concentrations of manzamine A (1) or with 10, 20, or 40 μM concentrations with apigenin (Sigma, MO) and incubated for 48 hours. At the given time-point, the cells were harvested by trypsinization, washed with PBS, and lysed using radioimmunoprecipitation assay (RIPA) buffer containing a cocktail of protease inhibitors (Sigma, MO) to extract protein. Following quantification by colorimetric assay (Bio-Rad), equal amount of protein was loaded on to SDS-polyacrylamide gel and transferred to polyvinylidene difluoride (PVDF) membrane, which was blocked in 5% non-fat dry milk in tris-buffered saline with tween-20 (TBST) and incubated with primary antibody against p53, p21, Cyclin D1, SIX1, GAPDH (Cell signaling) or CK2α (R&D Systems) at a 1:500 dilution. For total CK2a, Rb and pRb, the blocking and antibody dilutions were made in 3% bovine serum albumin (BSA). The membrane was washed with TBST and incubated with secondary IgG HRP conjugate at 1:2000 dilution. The specific band of the protein was visualized with chemiluminescence reagent exposed onto BioMax Film (Kodak) and ChemoDoc-it^2 imager (UVP).

Structure (SMILES): O[C@]12C=C(c3nccc4c3[nH]c3ccccc34)[C@@H]3CCN(CCCC/C=C\CC1)C[C@@]31C[C@@H]3/C=C\CCCCN3[C@H]12 [manzamine A]
- p21 protein level (C33A): not-detectable
- p53 protein level (C33A): did not show any change
- p21 level (HeLa): remains unchanged
- p53 level (HeLa): marginal increase
- cyclin D1, total Rb, and phospho-Rb protein level (SiHa and CaSki): inhibition
- p53 and p21 protein level (SiHa and CaSki): increase
